In patent EP2092824A1, “Heterocyclyl pyrimidines” (Bayer CropScience AG, priority 2008, dated 2009):

Experiments:
[1] = logP determination by HPLC on reversed-phase column (EEC-Directive 79/831 Annex V.A8); format: physicochemical; conditions: c18 hplc, C 18 reversed phase, 43°C, LC-MS at pH 2,7 (0,1 % aqueous formic acid / acetonitrile)
Description: Die Bestimmung der in den Herstellungsbeispielen angegebenen logP-Werte erfolgte gemäß EEC-Directive 79/831 Annex V.A8 durch HPLC (High Performance Liquid Chromatography) an einer Phasenumkehrsäule (C 18). Temperatur: 43°C.
Die Bestimmung erfolgte mit der LC-MS bei pH 2,7 mit 0,1 % wässriger Ameisensäure und Acetonitril (enthält 0,1 % Ameisensäure) als Eluenten; linearer Gradient von 10 % Acetonitril bis 95 % Acetonitril.
Die Eichung erfolgte mit unverzweigten Alkan-2-onen (mit 3 bis 16 Kohlenstoffatomen), deren logP-Werte bekannt sind (Bestimmung der logP-Werte anhand der Retentionszeiten durch lineare Interpolation zwischen zwei aufeinanderfolgenden Alkanonen).

Myzus persicae = test: Myzus test (MYZUPE spray treatment); format: in vivo; conditions: foliar, Aufwandmenge 500 g/ha, sprayed Chinese cabbage leaf discs (Brassica pekinensis) infested with all stages, 100 % = all aphids killed, read-out: Wirkung
Excerpt: Myzus-Test (MYZUPE Spritzbehandlung)
(§1) Zur Herstellung einer zweckmäßigen Wirkstoffzubereitung vermischt man 1 Gewichtsteil Wirkstoff mit den angegebenen Mengen Lösungsmittel und Emulgator und verdünnt das Konzentrat mit emulgatorhaltigem Wasser auf die gewünschte Konzentration.
Chinakohlblattscheiben (Brassica pekinensis), die von allen Stadien der Grünen Pfirsichblattlaus (Myzus persicae) befallen sind, werden mit einer Wirkstoffzubereitung der gewünschten Konzentration gespritzt.
Nach der gewünschten Zeit wird die Wirkung in % bestimmt. Dabei bedeutet 100 %, dass alle Blattläuse abgetötet wurden; 0 % bedeutet, dass keine Blattläuse abgetötet wurden.

Sphaerotheca fuliginea = test: Sphaerotheca test (cucumber) / protective; format: in vivo; conditions: Konzentration an Wirkstoff 500ppm, cucumber plants, evaluation 7 days after inoculation, 100 % = no infestation
Excerpt: Sphaerotheca-Test (Gurke) / protektiv
(§2) Zur Herstellung einer zweckmäßigen Wirkstoffzubereitung vermischt man 1 Gewichtsteil Wirkstoff mit den angegebenen Mengen Lösungsmittel und Emulgator und verdünnt das Konzentrat mit Wasser auf die gewünschte Konzentration.
Zur Prüfung auf protektive Wirksamkeit bespritzt man junge Gurkenpflanzen mit der Wirkstoffzubereitung in der angegebenen Aufwandmenge. 1 Tag nach der Behandlung werden die Pflanzen mit einer Sporensuspension von Sphaerotheca fuliginea inokuliert. Anschließend werden die Pflanzen in einem Gewächshaus bei 70 % relativer Luftfeuchtigkeit und einer Temperatur von 23 °C aufgestellt.
7 Tage nach der Inokulation erfolgt die Auswertung. Dabei bedeutet 0 % ein Wirkungsgrad, der demjenigen der Kontrolle entspricht, während ein Wirkungsgrad von 100 % bedeutet, daß kein Befall beobachtet wird.

Phaedon cochleariae = test: Phaedon test (PHAECO spray treatment); format: in vivo; conditions: foliar, Aufwandmenge 500 g/ha, sprayed Chinese cabbage leaf discs, larvae, 100 % = all beetle larvae killed, read-out: Wirkung
Excerpt: Phaedon-Test (PHAECO Spritzbehandlung)
as §1
Chinakohlblattscheiben (Brassica pekinensis) werden mit einer Wirkstoffzubereitung der gewünschten Konzentration gespritzt und nach dem Abtrocknen mit Larven des Meerrettichblattkäfers (Phaedon cochleariae) besetzt.
Nach der gewünschten Zeit wird die Wirkung in % bestimmt. Dabei bedeutet 100 %, dass alle Käferlarven abgetötet wurden; 0 % bedeutet, dass keine Käferlarven abgetötet wurden.

Puccinia recondita = test: Puccinia test (wheat) / protective; format: in vivo; conditions: Konzentration an Wirkstoff 500ppm, wheat plants, evaluation 7-9 days after inoculation, 100 % = no infestation
Excerpt: Puccinia-Test (Weizen) / protektiv
as §2
Zur Prüfung auf protektive Wirksamkeit bespritzt man junge Weizenpflanzen mit der Wirkstoffzubereitung in der angegebenen Aufwandmenge. 1 Tag nach der Behandlung werden die Pflanzen mit einer Sporensuspension von Puccinia recondita inokuliert und stehen dann 48h bei 100% rel. Feuchte und 22°C. Anschließend stehen die Pflanzen bei 80% rel. Luftfeuchtigkeit und einer Temperatur von 20 °C.
7-9 Tage nach der Inokulation erfolgt die Auswertung. Dabei bedeutet 0 % ein Wirkungsgrad, der demjenigen der Kontrolle entspricht, während ein Wirkungsgrad von 100 % bedeutet, dass kein Befall beobachtet wird.

Meloidogyne incognita = test: Meloidogyne test (MELGIN spray treatment); format: in vivo; conditions: Aufwandmenge 4 ppm; nematicidal effect by gall formation on lettuce roots; 100 % = no galls
Excerpt: Meloidogyne-Test (MELGIN Spritzbehandlung)
Zur Herstellung einer zweckmäßigen Wirkstoffzubereitung vermischt man 1 Gewichtsteil Wirkstoff mit der angegebenen Menge Lösungsmittel und verdünnt das Konzentrat mit Wasser auf die gewünschte Konzentration.
Gefäße werden mit Sand, Wirkstofflösung, Meloidogyne incognita-Ei-Larven-Suspension und Salatsamen gefüllt. Die Salatsamen keimen und die Pflänzchen entwickeln sich. An den Wurzeln entwickeln sich die Gallen.
Nach der gewünschten Zeit wird die nematizide Wirkung an Hand der Gallenbildung in % bestimmt. Dabei bedeutet 100 %, dass keine Gallen gefunden wurden; 0 % bedeutet, dass die Zahl der Gallen an den behandelten Pflanzen der der unbehandelten Kontrolle entspricht.

Structure (SMILES) | chromatographic logP [1] | mortality at 500 g/ha (Myzus persicae) [%] | mortality at 500 g/ha (Phaedon cochleariae) [%] | further results
CSc1nc(Cl)c(-c2ccccc2Cl)c(Cl)n1 [4,6-Dichlor-5-(2-chlorphenyl)-2-(methylthio)pyrimidin] | 4.52 | – | – | –
CC(C)Nc1nc([S+](C)[O-])nc(Cl)c1-c1ccccc1Cl (centres unmarked) [4-Chlor-5-(2-chlorphenyl)-6-(isopropylamino)-2-(methylsulfinyl)-pyrimidin] | 2.55 | – | – | –
CSc1nc(Cl)c(-c2ccccc2Cl)c(NC(C)C)n1 [4-Chlor-5-(2-chlorphenyl)-6-(isopropylamino)-2-(methylthio)-pyrimidin] | 4.52 | – | – | –
CC(C)Nc1nc(-n2ccc(C(=O)NS(C)(=O)=O)n2)nc(Cl)c1-c1ccccc1Cl [I-2, 1-[4-Chlor-5-(2-chlorphenyl)-6-(isopropylamino)pyrimidin-2-yl]-N-(methylsulfonyl)-1H-pyrazol-3-carboxamid] | – | ≥ 80 | ≥ 80 | Wirkungsgrad (Sphaerotheca fuliginea): ≥ 70%; Wirkungsgrad (Puccinia recondita): ≥ 70%
Cc1cc(C(=O)NS(C)(=O)=O)nn1-c1nc(Cl)c(-c2ccccc2Cl)c(NC(C)C)n1 [I-3, 1-[4-Chlor-5-(2-chlorphenyl)-6-(isopropylamino)pyrimidin-2-yl]-5-methyl-N-(methylsulfonyl)-1H-pyrazol-3-carboxamid] | – | ≥ 80 | ≥ 80 | Wirkungsgrad (Sphaerotheca fuliginea): ≥ 70%; Wirkungsgrad (Puccinia recondita): ≥ 70%; Wirkung (Meloidogyne incognita): ≥ 80%
Cc1cc(C(=O)NS(C)(=O)=O)nn1-c1nc(Cl)c(-c2ccccc2)c(NC(C)C)n1 [I-4] | – | – | ≥ 80 | –
Cc1cc(C(=O)NS(C)(=O)=O)nn1-c1nc(Cl)c(-c2c(F)cc(F)cc2F)c(NC(C)C)n1 [I-6] | – | ≥ 80 | ≥ 80 | –
CC(C)Nc1nc(S(C)(=O)=O)nc(Cl)c1-c1ccccc1Cl [II-1, 4-Chlor-5-(2-chlorphenyl)-6-isopropylamino-2-methylsulfonyl-pyrimidin] | 2.96 | – | – | –
CC(C)Nc1nc(-n2ccc(C(=O)O)n2)nc(Cl)c1-c1ccccc1Cl [X-1, 1-[4-Chlor-5-(2-chlorphenyl)-6-(isopropylamino)pyrimidin-2-yl]-1H-pyrazol-3-carbonsäure] | – | ≥ 80 | ≥ 80 | –
Cc1cc(C(=O)O)nn1-c1nc(Cl)c(-c2ccccc2Cl)c(NC(C)C)n1 [X-2, 1-[4-Chlor-5-(2-chlorphenyl)-6-(isopropylamino)pyrimidin-2-yl]-5-methyl-1H-pyrazol-3-carbonsäure] | – | ≥ 80 | ≥ 80 | –
Cc1cc(C(=O)O)nn1-c1nc(Cl)c(-c2ccccc2)c(NC(C)C)n1 [X-3] | – | – | ≥ 80 | –
Cc1cc(C(=O)O)nn1-c1nc(Cl)c(-c2c(F)cc(F)cc2F)c(NC(C)C)n1 [X-5] | – | ≥ 80 | ≥ 80 | –
